This is an account of results in US20120028917A1, “Use Of N-(4-((3-(2-Amino-4-Pyrimidinyl)-2-Pyridinyl)Oxy)Phenyl)-4-(4-Methyl-2-Thienyl)-1-Phthalazinamine In The Treatment Of Antimitotic Agent Resistant Cancer” (Amgen Inc., priority 2009, published 2012).

One test has as its system HCT15. Kind of test: Cellular EC50, additional cell lines (Table 6-B). The test is classed as cell-based, human. The following applies: P-gp+. How it is done:
(§1) All high-content cell assays were performed on an ArrayScan VTi HCS Reader (Cellomics). Tumor cell lines were treated with AMG 900, AZD1152, MK-0457, or PHA-739358 (concentration range varied based on potency). The cells were prepared for intracellular staining with an anti-p-histone H3 Ser^10 antibody as previously described (1). Detection was performed with an anti-rabbit IgG-alexa-568 antibody and DAPI. The cellular levels of p-histone H3 were analyzed using Target Activation V2 algorithm (Cellomics) to determine the percentage of positive cells. For the imaging assays, the concentration-response curves and corresponding IC50 and EC50 values were calculated using the percentage of cells affected versus the DMSO control.
(§2) Tumor cells were treated with AMG 900, AZD1152, MK-0457, or PHA-739358 (range concentration varied based on potency) for 24 hours and processed for cell-cycle analysis (DNA staining only) as previously described (1). Cells were analyzed on a LSRII flow cytometer using BD FACS Diva software. The concentration-response curves and corresponding EC50 values were calculated using the percentage of cells with ≧4N DNA content versus the DMSO control.

The subject of the next test is MCF-7. Description: Cellular EC50, additional cell lines (Table 6-B). The format is cell-based, human. The following applies: MCF-7, Breast. The method, then:
as §1, §2

Another test relates to MDA-MB-231 parental. Description: p-histone H3 fluorescence-based cell imaging assay. The following applies: P-gp −. Details: species or system human. The method, then:
as §1

Test [1] relates to MDA-MB-231 PTX paclitaxel resistant. Description: p-histone H3 fluorescence-based cell imaging assay. The settings on record: for EC50: MDA-MB-231-PTX*, Breast, P-gp+, read-out: Cellular EC50; for IC50: MDA-MB-231 PTX paclitaxel resistant, P-gp +. Details: species or system human. How it is done: as §1
Test [2] relates to MES-SA-Dx5 doxorubicin resistant. Kind of test: p-histone H3 fluorescence-based cell imaging assay. Details: species or system human. The settings on record: for EC50: MES-SA Dx5*, Uterine, P-gp+, read-out: Cellular EC50; for IC50: MES-SA-Dx5 doxorubicin resistant, P-gp +. How it is done: as §1
For a further test, the system named is NCI-H460 parental. Kind of test: p-histone H3 fluorescence-based cell imaging assay. Further details: species or system human. The settings on record: P-gp −. How it is done: as §1
The next test deals with MES-SA parental. Description: p-histone H3 fluorescence-based cell imaging assay. The settings on record: P-gp −. Details: species or system human. The method, then: as §1
Test [3] relates to NCI-H460 PTX paclitaxel resistant. Kind of test: p-histone H3 fluorescence-based cell imaging assay. Further details: species or system human. The settings on record: for EC50: NCI-H460-PTX*, Lung, P-gp+, read-out: Cellular EC50; for IC50: NCI-H460 PTX paclitaxel resistant, P-gp +. The method, then:
as §1

In a further test the test system is RPMI8226. Description: ≧4N DNA content assay (flow cytometry). The test is classed as cell-based, human. How it is done:
as §2
On the technique in general: In flow cytometry, cells or beads pass a laser one at a time.

Another test deals with U226-B1. Description: ≧4N DNA content assay (flow cytometry). The format is cell-based, human. The following applies: U226-B1, BCRP −, 24 hours. The method, then: as §2
For another test, the system named is SNU499. Description: Cellular EC50, additional cell lines (Table 6-B). The test is classed as cell-based. The settings on record: Homo sapiens, Liver, P-gp+. How it is done:
as §1, §2

The test system of a further test is 769P. Kind of test: Cellular EC50, additional cell lines (Table 6-B). The test is classed as cell-based. The settings on record: Homo sapiens, Kidney, P-gp+. The method, then: as §1, §2
A further test has as its system HCT116 parental. Description: ≧4N DNA content assay (FIG. 6-A). The test is classed as cell-based. The following applies: Homo sapiens, HCT-116, 24 hours, read-out: cellular ≧4N DNA content EC50. The method, then: as §2
(§3) HCT116 cell lines were treated with increasing concentrations of AMG 900 or AZD1152 for 24 hours. Flow cytometry was used to assess the accumulation of cells with ≧4N DNA content expressed as a percentage of the DMSO-treated control (POC). The concentration-response curves and calculated EC50 values were determined from two independent experiments (bars, ±SD).

The test system of test [4] is HCT116 AZD1152-resistant. Description: ≧4N DNA content assay (FIG. 6-A). The format is cell-based. The following applies: Homo sapiens, HCT-116; HCT116 AZD1152-resistant subline; 24 hours; read-out: cellular ≧4N DNA content EC50. The method, then: Tumor cell lines were obtained from the American Type Culture Collection (ATCC) unless otherwise specified. The MDA-MB-231-PTX and NCI-H460-PTX cell lines were established by growing the cells in the presence of increasing concentrations of paclitaxel over a period of 6 months. The HCT116 AZD1152-resistant cell line was established by growing the cells in the presence of AZD1152 at 80 nmol/L.
as §2, §3

Test [5] has as its system HCT116 AZD1152-resistant. Kind of test: Colony formation assay (FIG. 6-B). The test is classed as cell-based, human. The following applies: HCT116 variant subline, at 50 nmol/L. The method, then:
Tumor cell lines were obtained from the American Type Culture Collection (ATCC) unless otherwise specified. The MDA-MB-231-PTX and NCI-H460-PTX cell lines were established by growing the cells in the presence of increasing concentrations of paclitaxel over a period of 6 months. The HCT116 AZD1152-resistant cell line was established by growing the cells in the presence of AZD1152 at 80 nmol/L. Tumor cells were treated with AMG 900, paclitaxel or AZD1152 (0.5, 5, 50 nmol/L) for 48 hours, washed twice with complete media, and cells were re-plated at a density of 5000 cells per well in drug-free complete media. Cells were grown until the DMSO control wells were confluent. Cells were stained with crystal violet dye (Sigma), washed with distilled water, and imaged using a digital scanner (Hewlett-Packard). Colony formation assay was performed with HCT116 cell lines (parental and AZD1152-resistant). Cells were treated with DMSO, AMG 900, AZD1152, or paclitaxel at the indicated concentrations for 48 hours and re-plated in complete media lacking the inhibitor. After the DMSO-treated cells reached confluence, the cells were stained with crystal violet and imaged (duplicate wells).

The mark [6] stands for this setting: Homo sapiens, RPMI-8226, RPMI8226, BCRP +, 24 hours, read-out: ≧4N DNA Content assay, EC50 value.
Where [7] appears, read: Homo sapiens, RPMI-8226**, Multiple Myeloma, P-gp− and/or BCRP+, read-out: Cellular EC50.

Where two headings read alike, the source gives them in different places. Some results are limits rather than exact numbers.

One may read the EC50 as the concentration giving half of the maximal effect. By IC50 is commonly meant the concentration that inhibits the measured activity by half.

For `Cc1cc(Nc2cc(N3CCN(C)CC3)nc(Sc3ccc(NC(=O)C4CC4)cc3)n2)n[nH]1` [MK-0457], the EC50 was 908 nM with HCT15 (Colon); 27 nM in the test on MCF-7; 277 nM in [1]; greater than 1250 nM in [2]; 468 nM in test [3]; 162 nM in the test on RPMI8226 (RPMI8226, BCRP +, 24 hours, read-out: ≧4N DNA Content assay, EC50 value). Besides, the EC50 with RPMI8226 (RPMI-8226**, Multiple Myeloma, P-gp− and/or BCRP+, read-out: Cellular EC50) is 162 nM; in the test with U226-B1, 46 nM. Further, the IC50 was 43 nM in the test with MDA-MB-231 parental; 277 nM in test [1]; greater than 1250 nM in test [2]; 123 nM with NCI-H460 parental; 51 nM in the test with MES-SA parental; 468 nM in [3].

Take `CO[C@@H](C(=O)N1Cc2n[nH]c(NC(=O)c3ccc(N4CCN(C)CC4)cc3)c2C1)c1ccccc1` [PHA-739358]: the EC50 is greater than 1250 nM with SNU499; greater than 1250 nM in the test with 769P; greater than 1250 nM in the test on HCT15 (Homo sapiens, HCT-15, Colon); 68 nM with MCF-7 (Homo sapiens, MCF7); greater than 1250 nM in [1] (Homo sapiens); greater than 1250 nM in test [2] (Homo sapiens). Moreover, the EC50 in test [3] (Homo sapiens) is greater than 1250 nM; in the test on RPMI8226 (setting [6]), greater than 1250 nM; with RPMI8226 (setting [7]), greater than 1250 nM; with U226-B1 (Homo sapiens) it was 67 nM. Further, the IC50 is 49 nM in the test on MDA-MB-231 parental (Homo sapiens); greater than 1250 nM in test [1] (Homo sapiens); greater than 1250 nM in [2] (Homo sapiens); 510 nM in the test on NCI-H460 parental (Homo sapiens); 113 nM in the test with MES-SA parental (Homo sapiens); greater than 1250 nM in [3] (Homo sapiens).

As to `CCN(CCCOc1ccc2c(Nc3cc(CC(=O)Nc4cccc(F)c4)n[nH]3)ncnc2c1)CCOP(=O)(O)O` [AZD1152], the EC50 with SNU499 is greater than 1250 nM; with 769P, 703 nM; in the test on HCT116 parental, 34 nM; with HCT15 (Homo sapiens, HCT-15, Colon) it was greater than 625 nM; in the test with MCF-7 (Homo sapiens, MCF7) it was 11 nM; in the test on HCT116 AZD1152-resistant [4], 672 nM. The EC50 in [1] (Homo sapiens) was greater than 500 nM; in [2] (Homo sapiens), greater than 500 nM; in [3] (Homo sapiens), greater than 500 nM; with RPMI8226 (setting [6]) it was 865 nM; in the test on RPMI8226 (setting [7]), 865 nM; in the test with U226-B1 (Homo sapiens), 12 nM. For the same compound, the IC50 in the test with MDA-MB-231 parental (Homo sapiens) is 16 nM; in test [1] (Homo sapiens) it was greater than 500 nM; in test [2] (Homo sapiens), greater than 500 nM; in the test with NCI-H460 parental (Homo sapiens), 131 nM; in the test with MES-SA parental (Homo sapiens), 51 nM; in test [3] (Homo sapiens), greater than 500 nM. In addition, the “sensitivity in colony formation” value with HCT116 AZD1152-resistant [5] is recorded as “insensitive”.
